Literature values as cited in patent US12029822B2, “Drug delivery systems containing oxidized cholesterols” (Georgia Tech Research Corporation, priority 2019, dated 2024).

Tested on: AB1-HA tumor
Conditions: CTX treatment at Day 9

## O=P1(N(CCCl)CCCl)NCCCO1 (stereo not shown) [CTX, Cyclophosphamide]
  cure rate: 75%
